Consider 24 compounds from ChEMBL document CHEMBL1153804, “Optimization of a series of quinazolinone-derived antagonists of CXCR3” (Bioorg Med Chem Lett, 2009).

Data set [1] deals with T1, C-X-C chemokine receptor type 3 (Homo sapiens, UniProt P49682).
T1 sequence (P49682 whole entry): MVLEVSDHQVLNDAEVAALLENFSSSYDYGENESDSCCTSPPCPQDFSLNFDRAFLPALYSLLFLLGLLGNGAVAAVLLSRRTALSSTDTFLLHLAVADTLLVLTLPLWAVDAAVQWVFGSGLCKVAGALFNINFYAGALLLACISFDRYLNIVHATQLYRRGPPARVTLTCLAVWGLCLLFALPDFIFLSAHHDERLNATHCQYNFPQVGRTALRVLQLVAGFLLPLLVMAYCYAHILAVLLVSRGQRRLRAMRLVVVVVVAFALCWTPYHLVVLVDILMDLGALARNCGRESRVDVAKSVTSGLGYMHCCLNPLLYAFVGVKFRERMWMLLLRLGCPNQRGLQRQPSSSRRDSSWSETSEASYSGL
The data set is described as follows: Displacement of [125I]-1P10 from human CXCR3 expressed in PBMC after 2 hrs in RPMI buffer by scintillation counting.

Data set [2] relates to Blood. The data set is described as follows: Drug level in bleomycin-induced mouse blood at 10 mg/mL, sc. The data set is classed as ADME, tissue-based.
Data set [3] deals with Blood. The data set is described as follows: Drug level in bleomycin-induced mouse blood at 3 mg/mL, sc. The data set is classed as ADME, tissue-based.
Data set [4] deals with Blood. The data set is described as follows: Drug level in bleomycin-induced mouse blood at 1 mg/mL, sc. The format is ADME, tissue-based.

Consider `CCOc1ccc(-n2c([C@@H](C)N(C[C@H]3CCCN3C(C)C)C(=O)Cc3ccc(F)c(C(F)(F)F)c3)nc3ncccc3c2=O)cc1`, for which the IC50 in data set [1] was determined as 2 nM.
As to `CCOc1ccc(-n2c([C@@H](C)N(C[C@@H]3CCCN3C(C)C)C(=O)Cc3ccc(F)c(C(F)(F)F)c3)nc3ncccc3c2=O)cc1`, the IC50 in data set [1] is 5 nM.
Same read-out and setting: as for `CCOc1ccc(-n2c([C@@H](C)N(Cc3cccnc3)C(=O)CN3CCN(CCC(F)(F)F)CC3)nc3ccccc3c2=O)cc1`, the figure is 690 nM.
`CCOc1ccc(-n2c([C@@H](C)N(Cc3cccnc3)C(=O)Cc3ccc(OC(F)(F)F)cc3)nc3ncccc3c2=O)cc1`: the Drug uptake in data set [2] was 104 ng/mL; in data set [3], 26 ng/mL; in data set [4], 19 ng/mL.
`CCOc1ccc(-n2c([C@@H](C)N(C(=O)Cc3ccc(F)c(C(F)(F)F)c3)C3CCN(C(C)C)CC3)nc3ncccc3c2=O)cc1`: in data set [1], the half-maximal inhibitory concentration (IC50) was 1 nM.
Regarding `CCOc1ccc(-n2c([C@@H](C)N(Cc3cccnc3)C(=O)Cc3ccc(S(C)(=O)=O)cc3)nc3ccccc3c2=O)cc1`, the IC50 in data set [1] was 770 nM.
The same measure, in the same setting: to `CCOc1ccc(-n2c([C@@H](C)N(Cc3cccnc3)C(=O)Cc3cc(C(F)(F)F)cc(C(F)(F)F)c3)nc3ccccc3c2=O)cc1` belongs 7 nM; to `CCOc1ccc(-n2c([C@@H](C)N(Cc3cccnc3)C(=O)Cn3cnc(C(F)(F)F)c3)nc3ccccc3c2=O)cc1`, 7 nM.
For the compound `CCOc1ccc(-n2c([C@@H](C)N(Cc3cccnc3)C(=O)Cc3ccc(F)c(C(F)(F)F)c3)nc3cccnc3c2=O)cc1`, in data set [1], the IC50 stood at 110 nM.
`CCOc1ccc(-n2c([C@@H](C)N(C(=O)Cc3ccc(F)c(C(F)(F)F)c3)C3CCOCC3)nc3ncccc3c2=O)cc1` had an IC50 in data set [1] of 5 nM.
Regarding `CCOc1ccc(-n2c([C@@H](C)N(Cc3cccnc3)C(=O)Cc3ccc(F)c(C(F)(F)F)c3)nc3nccnc3c2=O)cc1`, the IC50 in data set [1] was 42 nM.
On the same count and under the same terms, to `CCOc1ccc(-n2c([C@@H](C)N(CC3CCN(C)CC3)C(=O)Cc3ccc(F)c(C(F)(F)F)c3)nc3ncccc3c2=O)cc1` belongs 2 nM.
The same measure, in the same setting: as for `CCOc1ccc(-n2c([C@@H](C)N(Cc3cccnc3)C(=O)Cc3nc4ccc(C(F)(F)F)cc4[nH]3)nc3ccccc3c2=O)cc1`, the figure is 210 nM; as for `CCOc1ccc(-n2c([C@@H](C)N(Cc3cccnc3)C(=O)Cc3ccc(C#N)cc3)nc3ccccc3c2=O)cc1`, 21 nM.
Consider `CCOc1ccc(-n2c([C@@H](C)N(Cc3cccnc3)C(=O)Cc3cccc(C(F)(F)F)c3)nc3ccccc3c2=O)cc1`, for which the 50% inhibitory concentration (IC50) in data set [1] was 11 nM.
On the same count and under the same terms, to `CCOc1ccc(-n2c([C@@H](C)N(Cc3cccnc3)C(=O)Cc3ccc(F)c(C(F)(F)F)c3)nc3ncccc3c2=O)cc1` belongs 5 nM; to `CCOc1ccc(-n2c([C@@H](C)N(Cc3cccnc3)C(=O)Cc3cc(F)c(F)c(F)c3)nc3ccccc3c2=O)cc1`, 8 nM; to `CCOc1ccc(-n2c([C@@H](C)N(C[C@H]3CCCN3)C(=O)Cc3ccc(F)c(C(F)(F)F)c3)nc3ncccc3c2=O)cc1`, 2 nM.
In data set [1], `CCOc1ccc(-n2c([C@@H](C)N(Cc3cc(C)no3)C(=O)Cc3ccc(F)c(C(F)(F)F)c3)nc3ncccc3c2=O)cc1` had an IC50 of 2 nM.
For the compound `CCOc1ccc(-n2c([C@@H](C)N(Cc3cccnc3)C(=O)Cc3ccc(F)c(C(F)(F)F)c3)nc3cnccc3c2=O)cc1`, the IC50 in data set [1] was 32 nM.
In turn, `CCOc1ccc(-n2c([C@@H](C)N(C(=O)Cc3ccc(F)c(C(F)(F)F)c3)C3CCN(C(C)=O)CC3)nc3ncccc3c2=O)cc1` returned a half-maximal inhibitory concentration (IC50) in data set [1] of 6 nM.
For the compound `CCOc1ccc(-n2c([C@@H](C)N(Cc3ccc[n+]([O-])c3)C(=O)Cc3ccc(OC(F)(F)F)cc3)nc3ncccc3c2=O)cc1`, the IC50 in data set [1] was 4 nM. Moreover, the Drug uptake in data set [3] amounted to 19 ng/mL; in data set [4], 14 ng/mL.
The compound `CCOc1ccc(-n2c([C@@H](C)N(Cc3cccnc3)C(=O)Cc3ccc(F)c(F)c3)nc3ccccc3c2=O)cc1` registered an IC50 in data set [1] of 40 nM.
The same measure, in the same setting: as for `CCOc1ccc(-n2c([C@@H](C)N(Cc3cccnc3)C(=O)CCc3ccc(C(F)(F)F)cc3)nc3ccccc3c2=O)cc1`, the figure is 2090 nM.
